Assay results as given in PubChem BioAssay (NCI).
Where “and” joins values, the source holds several entries; their conditions need not be identical. Identical values can stand only once.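 Tested at 5 concentrations; 48 h exposure; 96-well plates; endpoints linearly interpolated, else capped at highest concentration. GI50 = concentration required for 50% inhibition of growth. TGI denotes the concentration required for complete inhibition of growth.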

Assays:
Assay in all cases: DTP human tumour cell line panel, 48 h
A498 renal = test system: A498 renal
EKVX NSCLC = test system: EKVX NSCLC
HCT-116 colon = test system: HCT-116 colon
HT29 colon = test system: HT29 colon
KM12 colon = test system: KM12 colon
NCI-H522 lung = test system: NCI-H522 lung
RXF 393 renal = test system: RXF 393 renal
SN12C renal = test system: SN12C renal
SW-620 colon = test system: SW-620 colon
TK-10 renal = test system: TK-10 renal

| SMILES | GI50 (A498 renal) [µM] | TGI (A498 renal) [µM] | GI50 (EKVX NSCLC) [µM] | TGI (EKVX NSCLC) [µM] | GI50 (HCT-116 colon) [µM] | TGI (HCT-116 colon) | GI50 (HT29 colon) [µM] | TGI (HT29 colon) [µM] | GI50 (KM12 colon) [µM] | TGI (KM12 colon) | GI50 (NCI-H522 lung) [µM] | TGI (NCI-H522 lung) [µM] | GI50 (RXF 393 renal) [µM] | TGI (RXF 393 renal) | GI50 (SN12C renal) [µM] | TGI (SN12C renal) | GI50 (SW-620 colon) [µM] | TGI (SW-620 colon) | GI50 (TK-10 renal) [µM] | TGI (TK-10 renal) [µM] |
| --- | --- | --- | --- | --- | --- | --- | --- | --- | --- | --- | --- | --- | --- | --- | --- | --- | --- | --- | --- | --- |
| c1ccc(CN2CCC3(CC2)ONC2=NCCN23)cc1 | > 100 | > 100 | > 100 | > 100 | 49.1 | > 100 µM | 61.4 | > 100 | 58.5 | > 100 µM | 37.8 | > 100 | 88.1 | > 100 µM | 27.1 | 82 µM | 75 | > 100 µM | 72 | > 100 |
| Nc1nc(N)c2ncn(Cc3c(Cl)cccc3Cl)c2n1 | – | > 100 | – | > 100 | – | > 100 µM | – | > 100 | – | > 100 µM | – | > 100 | – | > 100 µM | – | > 100 µM | – | > 100 µM | – | > 100 |
| CC(C)(C)c1cc2c(OP(c3ccccc3)c3ccccc3)c(c1)Cc1cc(C(C)(C)C)cc(c1OP(c1ccccc1)c1ccccc1)Cc1cc(C(C)(C)C)cc(c1OP(c1ccccc1)c1ccccc1)Cc1cc(C(C)(C)C)cc(c1OP(c1ccccc1)c1ccccc1)C2 | > 50 | > 50 | > 50 | > 50 | – | > 5 µM | 47.8 | > 50 | > 50 | > 50 µM | 44.6 | > 50 | – | > 50 µM | > 50 | > 50 µM | > 50 | > 50 µM | > 50 | > 50 |
| [O-]c1c(-c2ccccc2)[se]c(-c2ccccc2)[n+]1-c1ccccc1 | – | 26.7 | – | 35.4 | – | 11.4 µM | – | 52.9 | – | 23.1 µM | – | 8.42 | – | 8.45 µM | – | 17.9 µM | – | 34.2 µM | – | 20.6 |
| CC(C)C(OC(=O)c1cc(NC(=S)c2ccccc2)ccc1Cl)C(C)C | – | 58.4 | – | > 86.4 | – | 40.8 µM | – | 34.4 | – | 39.6 µM | – | 29.4 | – | 37.1 µM | – | 39.6 µM | – | > 89.6 µM | – | > 86.3 |
| COc1cc2c3c(n(CCCn4cccn4)c(=O)c2cc1OC)-c1cc2c(cc1C3=O)OCO2 | 2.48 | 14.2 | 8.79 | > 53.1 | 1.47 | 15.9 µM | 2.56 | 25.4 | 5.11 | > 54.5 µM | 2.07 | 63.7 | 5.76 | 27.7 µM | 0.463 | 3.08 µM | 1.39 | > 100 µM | 35.1 | > 100 |
| Cc1ccc2nc(NC(=O)CSC(=S)N3CCN(Cc4ccccc4)CC3)sc2c1 | > 100 | > 100 | > 100 | > 100 | > 96.7 | > 100 µM | 75.2 | > 100 | > 94.3 | > 100 µM | > 100 | > 100 | > 100 | > 100 µM | > 100 | > 100 µM | > 100 | > 100 µM | > 100 | > 100 |
| NC(CCc1nc(-c2ccccc2)cs1)C(=O)O (stereo not drawn) | – | > 100 | – | > 100 | – | > 100 µM | – | > 100 | – | > 100 µM | – | > 100 | – | > 100 µM | – | > 100 µM | – | > 100 µM | – | > 100 |
| NCC(=O)OCN1C(=O)C2C3C=CC(C2C1=O)C1C2C(=O)N(COC(=O)CN)C(=O)C2C31 (stereo not drawn) | – | > 100 | – | > 100 | – | 33.6 µM and 30.7 µM | – | > 100 | – | 48.4 µM and 42.2 µM | – | 25.9 | – | 37.9 µM and 42.3 µM | – | 48.4 µM and 50.7 µM | – | 44.7 µM and 54.2 µM | – | > 100 |
| CCCN(CCC)c1ccc(C=O)c(OC)c1 | 1.37 | 7.79 | 16.1 | 76.1 | 25.5 | > 100 µM | 17 | 70.8 | 23.7 | 83.8 µM | 18.1 | 67.3 | 26.9 | > 100 µM | 32.7 | > 100 µM | 22.9 | > 100 µM | 24.2 | 86.1 |
| O=c1c2cc(-c3ccccc3)sc2nc2sc(-c3ccccc3)nn12 | – | > 100 | – | > 100 | – | > 100 µM | – | > 100 | – | > 100 µM | – | > 100 | – | > 100 µM | – | > 100 µM | – | > 100 µM | – | > 100 |
| CC[O+]=c1cccc2ssnc1-2 | – | > 100 | – | > 100 | – | > 100 µM | – | > 100 | – | > 100 µM | – | 82.6 | – | > 100 µM | – | > 100 µM | – | > 100 µM | – | > 100 |
